Measurements as given in the SangsterLogP compilation.
Each block holds one compound with its values, some of them ahead of it.

Experiments:
[1] = method code SF-HPLC, from DOI: 10.3109/14756366.2013.845817, PMID: 24156741
[2] = method code SF-RC/EN, from DOI: 10.1016/s0022-2275(20)42614-8, PMID: 2280184; details: pH 1.0
[3] = method code SF-RC, from DOI: 10.1023/a:1015913817221, PMID: 2798313; details: pH 7.4
[4] = method code SF-AS, from Suikov, S.Yu.; Bondarenko, A.V.; Bogza, S.L.; Lutsyk, A.I. (2003). Distribution of 5-aminopyrazoles and 5-aminoisoxazoles in the octanol-water system. Ukr. Khim. Zh. (Russ. Ed.), 69(5/6)31-34.
[5] = not given; remark: listed apart in the source
[6] = method code SF-RC/EIA, from DOI: 10.1016/s0022-2275(20)42614-8, PMID: 2280184; details: pH 1.0
[7] = method code SF-RC, from DOI: 10.1016/j.nucmedbio.2016.05.003, PMID: 27236283; details: pH 7.4
[8] = method code SF-HPLC, from DOI: 10.1016/j.bmc.2009.01.040, PMID: 19208447; details: pH 7.0
[9] = method code SF-AS, from DOI: 10.1016/j.dyepig.2012.09.011; details: pH 7.4
[10] = not given; remark: listed apart in the source
[11] = method code SF-HPLC, from DOI: 10.1002/ps.2780220406
[12] = method code SF-HPLC, from DOI: 10.1021/jm00056a006, PMID: 8474102; details: pH 7.4
[13] = method code SF-AS, from DOI: 10.1562/0031-8655(2002)076<0127:dlbcop>2.0.co;2, PMID: 12194207; details: pH 7.3
[14] = not given; remark: listed apart in the source
[15] = method code SF-HPLC, from DOI: 10.2174/1871523013666141114203105, PMID: 25403255; details: pH 7.4
[16] = method code SF-AS, from DOI: 10.1562/0031-8655(2003)0780411sacotn2.0.co2, PMID: 14626671; details: pH 6.8
[17] = method code SF-FL, from DOI: 10.1562/0031-8655(2004)79<242:pmolop>2.0.co;2, PMID: 15115296; details: pH 7.4
[18] = method code SF-AS, from DOI: 10.1016/0223-5234(92)90105-a
[19] = method code SF-AS, from DOI: 10.1021/jm0104926, PMID: 11960499
[20] = method code SF-AS, from DOI: 10.1021/acs.jmedchem.5b00731, PMID: 26397825; details: pH 7.4
[21] = not given; remark: listed apart in the source
[22] = not given; remark: listed apart in the source
[23] = method code SF-CR+AS, from DOI: 10.1021/bi00514a045, PMID: 7248282; details: pH 7.0
[24] = method code SF-HPLC, from DOI: 10.1016/s0969-8043(00)00269-4, PMID: 11200881; details: pH 7.4
[25] = method code SF-AS, from DOI: 10.1021/jm020389w, PMID: 12620073; details: pH 7.4
[26] = not given; remark: listed apart in the source
[27] = method code SF, from DOI: 10.1021/bi00507a030, PMID: 7213619; details: pH 1.0

SMILES: CC(=O)O[C@H]1C(=O)[C@@]2(C)[C@H]([C@H](OC(=O)c3ccccc3)[C@]3(O)C[C@H](OC(=O)[C@@H](C)O)C(C)=C1C3(C)C)[C@]1(OC(C)=O)CO[C@@H]1C[C@@H]2O
- logP: 1.52

SMILES: C[C@H](CCC(=O)O)[C@H]1CC[C@H]2[C@@H]3[C@H](O)C[C@@H]4C[C@H](O)CC[C@]4(C)[C@H]3C[C@H](O)[C@]12C
- logD [2]: 2.02

SMILES: NC(N)=S
- logD [3]: -0.92

SMILES: COc1ccc(-c2cc(N)n[nH]2)cc1
- logP [4]: 1.42

SMILES: C#CCn1cc(C(=O)NC(C(=O)NC2CCCC2)c2ccccc2)c(=O)c2cc(F)c(Cl)nc21 (configuration not stated)
- logP [1]: 6.22

SMILES: C[C@H](CCC(=O)NCC(=O)O)[C@H]1CC[C@H]2[C@@H]3[C@H](O)C[C@@H]4C[C@H](O)CC[C@]4(C)[C@H]3CC[C@]12C
- logD [6]: 2.12

SMILES: COc1cc(OCCF)cc(OC)c1NC(=O)c1ccc(Cc2cc3c(cc2C)CCCC3(C)C)o1
- logD [7]: 1.85

SMILES: CC(C(=O)OCC(O)C(OC1OC(CO)C(O)C(O)C1O)C(O)C(O)C=O)c1cccc(C(=O)c2ccccc2)c1 (configuration not stated)
- logD [8]: -0.13

SMILES: Clc1ccc(Cn2cncn2)cc1Cl
- logP [11]: 2.54

SMILES: CC(C)CC(O)C(O)C(CC1CCCCC1)NC(=O)C(Cc1nccs1)NC(=O)C(Cc1ccccc1)CS(=O)(=O)C1CN(C)C1 (configuration not stated)
- logD [12]: 3.89

SMILES: O=C(c1ccccc1)c1cccc(C(O)C(=O)OCC2OC(OC3OC(CO)C(O)C(O)C3O)C(O)C(O)C2O)c1 (configuration not stated)
- logD [8]: -0.25

SMILES: COc1cc(NCCCF)cc(OC)c1NC(=O)c1ccc(Cc2cc3c(cc2C)CCCC3(C)C)o1
- logD [7]: 1.43

SMILES: FC(F)(F)Cl
- logP [14]: 1.56

SMILES: CC1CCC(C(C)C)C(OC(=O)COC(=O)Cc2ccccc2Nc2c(Cl)cccc2Cl)C1 (configuration not stated)
- logD [15]: 5.07

SMILES: COc1c(O)c2c(=O)cc(OC)c3c4c(OC)cc(=O)c5c(O)c(NCCN(C)C)c6c(c(c1C(C(C)=O)=C(C)C6)c23)c54
- logD [16]: 0.5

SMILES: CCOC(=O)Nc1ccc2nn(C)nc2c1
- logP [18]: 1.83

SMILES: C[C@H](CCC(=O)O)C1CCC2C3C(CC[C@@]21C)[C@@]1(C)CC[C@@H](O)CC1C[C@H]3O (some centres not stated)
- logD [2]: 3.28

SMILES: [N-]=[N+]=CC(F)(F)F
- logP [19]: 1.6

SMILES: CCN(CC)c1ccc(C=C2CC(=Cc3ccc(N(COCCOCCOCCOC)COCCOCCOCCOC)cc3)C2=O)cc1
- logD [20]: 3.2

SMILES: ClCC(Cl)Cl
- logP [21]: 1.98

SMILES: N#CSO
- logD [23]: 0.32

SMILES: CNc1cccc(NC(=O)N[C@@H]2N=C(c3ccccn3)c3ccccc3N(CC(=O)C(C)(C)C)C2=O)c1
- logD [24]: 2.68

SMILES: CCOC(=O)C1=C(C)NC(C)=C(C(=O)OCC)C1c1ccccc1/C=C/C(=O)OC(C)(C)C
- logP [10]: 4.43

SMILES: CCCOC(=O)CC(Cc1cncn1C)C(CC)C(=O)OCc1ccc(COC(=O)C(CC)C(CC(=O)OCCC)Cc2cncn2C)cc1 (configuration not stated)
- logP [26]: 5.47

SMILES: C[C@H](CCC(=O)NCC(=O)O)[C@H]1CC[C@H]2[C@@H]3[C@H](O)C[C@@H]4C[C@H](O)CC[C@]4(C)[C@H]3C[C@H](O)[C@]12C
- logD [6]: 1.65

SMILES: CC(C)CC(O)C(O)C(CC1CCCCC1)NC(=O)C(Cc1cscn1)NC(=O)C(Cc1ccccc1)CS(=O)(=O)C1CCN(C)C1 (configuration not stated)
- logD [12]: 3.61

SMILES: CCC(N)=O
- logD [27]: -0.66

SMILES: CCCCOC(=O)CC(Cc1cncn1C)C(CC)C(=O)OCc1ccc(COC(=O)C(CC)C(CC(=O)OCCCC)Cc2cncn2C)cc1 (configuration not stated)
- logP [26]: 6.87

SMILES: COCCOCCOCCOCN(C)c1ccc(C=C2CC(=Cc3ccc(N(C)COCCOCCOCCOC)cc3)C2=O)cc1
- logD [20]: 2.86

Next, values leading:

- logP [1]: 5.55
SMILES: C#CCn1cc(C(=O)NC(c2ccccc2)C(O)C(=O)Nc2ccccc2)c(=O)c2cc(F)c(Cl)nc21 (configuration not stated)

- logP [5]: 4.46
SMILES: CC(C(=O)C1c2cccc(O)c2C(=O)c2c(O)cccc21)c1ccc(Cc2ccccc2)cc1 (configuration not stated)

- logD [9]: 3.75
SMILES: Nc1cccc(-c2c3nc(c(-c4cccc(N)c4)c4ccc([nH]4)c(-c4cccc(N)c4)c4nc(c(-c5cccc(N)c5)c5ccc2[nH]5)C=C4)C=C3)c1

- logP [10]: 5.2
SMILES: COC(=O)C1=C(C)NC(C)=C(C(=O)OCCN2CCN(C(c3ccccc3)c3ccccc3)CC2)C1c1cccc([N+](=O)[O-])c1 (configuration not stated)

- logD [13]: 5.42
SMILES: Oc1cccc(-c2c3nc(c(-c4cccc(O)c4)c4ccc([nH]4)c(-c4cccc(O)c4)c4nc(c(-c5cccc(O)c5)c5ccc2[nH]5)CC4)C=C3)c1

- logD [17]: 4.93
SMILES: Oc1cccc(-c2c3nc(c(-c4cccc(O)c4)c4ccc([nH]4)c(-c4cccc(O)c4)c4nc(c(-c5cccc(O)c5)c5ccc2[nH]5)C=C4)C=C3)c1

- logD [13]: 3.35
SMILES: c1ccc2c(c1)-c1cc3[nH]c(cc4nc(cc5[nH]c(cc-2n1)c1ccccc51)-c1ccccc1-4)c1ccccc31

- logD [16]: 1.67
SMILES: COC1=C2CC(C)=c3c(C(C)=O)c(OC)c(O)c4c3c2c2c(cc(OC)c3c(OC)cc(O)c4c32)C(=O)C1=O

- logP [22]: 4.1
SMILES: O=C1C2C3CCC(CC3)C2C(=O)N1CCCCN1CCN(c2ccc3ccccc3n2)CC1 (configuration not stated)

- logP [22]: 4.23
SMILES: O=C1CC2(CCCC2)CC(=O)N1CCCCN1CCN(c2ccc3ccccc3n2)CC1

- logD [24]: 3.1
SMILES: COc1ccccc1N1CCN(CCN(C(=O)C2CCCCC2)c2ccccn2)CC1

- logD [9]: 2.74
SMILES: C1=Cc2nc1c(-c1cccs1)c1ccc([nH]1)c(-c1cccs1)c1nc(c(-c3cccs3)c3ccc([nH]3)c2-c2cccs2)C=C1

- logD [25]: 1.55
SMILES: CCOC(=O)Nc1ccc2cc3ccc(N)c(CO)c3nc2c1

- logD [17]: 1.79
SMILES: O=S(=O)(O)c1ccc(-c2c3nc(c(-c4ccc(S(=O)(=O)O)cc4)c4ccc([nH]4)c(-c4ccccc4)c4nc(c(-c5ccccc5)c5ccc2[nH]5)C=C4)CC3)cc1

- logD [15]: 5.08
SMILES: Cc1ccc(C(C)C)c(OC(=O)COC(=O)Cc2ccccc2Nc2c(Cl)cccc2Cl)c1

- logP [5]: 5.17
SMILES: COc1ccc2c(c1)c(CC(=O)C1c3cccc(O)c3C(=O)c3c(O)cccc31)c(C)n2C(=O)c1ccc(Cl)cc1

- logP: 1.92
SMILES: CC(=O)OC1C(=O)C2(C)C(O)CC3OCC3(OC(C)=O)C2C(OC(=O)c2ccccc2)C2(O)CC(OC(=O)C(O)CNC(=O)c3ccccc3)C(C)=C1C2(C)C (configuration not stated)

- logP [4]: 4.04
SMILES: Nc1c(-c2ccccc2)c(-c2ccccc2)nn1-c1ccccc1
